Data as given in ChEMBL document CHEMBL3046076, “3D-QSAR CoMFA and CoMSIA studies on a set of diverse 1a-adrenergic receptor antagonists” (Med Chem Res, 2011).

Target: T1, Alpha-1A adrenergic receptor (Homo sapiens, UniProt P35348)
T1 sequence (P35348 whole entry): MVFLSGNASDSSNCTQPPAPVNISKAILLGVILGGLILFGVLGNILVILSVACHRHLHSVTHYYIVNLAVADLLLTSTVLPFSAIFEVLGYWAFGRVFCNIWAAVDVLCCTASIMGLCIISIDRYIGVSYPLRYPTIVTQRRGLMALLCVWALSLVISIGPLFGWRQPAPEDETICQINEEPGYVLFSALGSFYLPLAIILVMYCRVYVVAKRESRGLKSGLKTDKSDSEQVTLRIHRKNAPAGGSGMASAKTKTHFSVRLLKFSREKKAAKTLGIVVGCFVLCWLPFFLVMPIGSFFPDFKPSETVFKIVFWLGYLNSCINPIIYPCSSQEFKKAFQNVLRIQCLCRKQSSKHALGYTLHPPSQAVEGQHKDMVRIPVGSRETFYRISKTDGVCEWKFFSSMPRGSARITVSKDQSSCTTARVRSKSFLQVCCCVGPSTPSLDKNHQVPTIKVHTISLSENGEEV
Test: Binding affinity to adrenergic alpha1A receptor (unknown origin)
Conditions: read-out: Ki

Row | Ki [nM] | SMILES
1 | 171 | N#Cc1ccccc1N1CCN(CCN2C(=O)CC3(CCCC3)CC2=O)CC1
2 | 537 | c1ccc(OCCN[C@H]2CO[C@H](c3ccccc3)CO2)cc1
3 | 158 | COc1cc2nc3c(c(N)c2cc1OC)CC(CNC(=O)c1ccoc1)C3 (stereo unspecified)
4 | 54.6 | O=C1CC2(CCCC2)C(=O)N1CCN1CCN(c2cc(Cl)ccc2Cl)CC1
5 | 0.08 | COc1cccc(OC)c1OCCN[C@H]1C[C@@H](c2ccccc2)c2ccccc2S1
6 | 2680 | O=C1CC2(CCCC2)CC(=O)N1CCN1CCN(c2ccccc2)CC1
7 | 513 | COc1cccc(OC)c1OCCN[C@H]1CO[C@H](c2ccccc2)CO1
8 | 24.5 | C[N+](C)(CCOc1ccccc1)CC1COC(c2ccccc2)(c2ccccc2)O1 (stereo unspecified)
9 | 70 | O=C1CC2(CCCC2)CCN1CCN1CCN(c2ccccc2Cl)CC1
10 | 1.45 | O=C1CC2(CCCC2)CC(=O)N1CCCCN1CCN(c2cc(Cl)ccc2Cl)CC1
11 | 407 | c1ccc(OCCN[C@H]2COC[C@H](c3ccccc3)O2)cc1
12 | 0.05 | COc1cccc(OC)c1OCCN[C@H]1C[C@@H](c2ccccc2)c2ccccc2O1
13 | 95.4 | Cc1ccc(C)c(N2CCN(CCN3C(=O)CC4(CCCC4)CC3=O)CC2)c1
14 | 170 | c1ccc(OCCNC2COCC(c3ccccc3)(c3ccccc3)O2)cc1 (stereo unspecified)
15 | 149 | CC(CN1CCN(c2cc(Cl)ccc2Cl)CC1)N1C(=O)CC2(CCCC2)CC1=O (stereo unspecified)
16 | 2.83 | CC(C)Oc1ccccc1N1CCN(CCN2C(=O)CC3(CCCC3)CC2=O)CC1
17 | 1700 | COc1cc2nc3c(c(N)c2cc1OC)CCC(CNCOc1c(OC)cccc1OC)C3 (stereo unspecified)

Row | Ki [nM] | SMILES
18 | 36.3 | COc1ccccc1N1CCN(CC2CO[C@@H](c3cccc4ccccc34)O2)CC1 (stereo partly specified)
19 | 236 | O=C1CC2(CCCC2)CC(=O)N1CCN1CCCN(c2ccccc2Cl)CC1
20 | 224 | c1ccc(OCCNC2COC(c3ccccc3)(c3ccccc3)CO2)cc1 (stereo unspecified)
21 | 403 | N#Cc1ccc(Cl)cc1N1CCN(CCN2C(=O)CC3(CCCC3)CC2=O)CC1
22 | 7.94 | COc1ccccc1N1CCN(CC2CO[C@H](c3cccc4ccccc34)O2)CC1 (stereo partly specified)
23 | 43.1 | O=C1CC2(C=CN1CCN1CCN(c3ccccc3Cl)CC1)CCCC2
24 | 86.2 | O=C1CC2(CCCC2)CC(=O)N1CCN1CCN(c2cc(F)ccc2Cl)CC1
25 | 8.7 | COc1cccc(OC)c1OCCNC[C@@H]1C(=O)c2ccccc2C[C@H]1c1ccccc1
26 | 91.2 | COc1ccccc1N1CCN(CC2COC3(CCCCC3)O2)CC1 (stereo unspecified)
27 | 95.5 | COc1cc2nc3c(c(N)c2cc1OC)CCC(CNC(=O)c1ccoc1)C3 (stereo unspecified)
28 | 468 | COc1cccc(OC)c1OCCN[C@H]1COC[C@H](c2ccccc2)O1
29 | 5.88 | COc1ccccc1N1CCN(CC(O)COc2cccc3ccccc23)CC1 (stereo unspecified) [NAFTOPIDIL]
30 | 74.1 | COc1ccccc1OCCNC1COC(c2ccccc2)(c2ccccc2)CO1 (stereo unspecified)
31 | 2.34 | COc1cccc(OC)c1OCCN[C@H]1C[C@H](c2ccccc2)c2ccccc2S1
32 | 100 | Cc1ccc(Cl)c(N2CCN(CCN3C(=O)CC4(CCCC4)CC3=O)CC2)c1
33 | 23.4 | COc1ccccc1N1CCN(CCN2C=CC3(CCCC3)CC2=O)CC1
34 | 339 | COc1cccc(OC)c1OCCNC1COCC(c2ccccc2)(c2ccccc2)O1 (stereo unspecified)

Row | SMILES | Ki [nM]
35 | CN(CCOc1ccccc1)CC1COC(c2ccccc2)(c2ccccc2)O1 (stereo unspecified) | 33.9
36 | COc1ccccc1N1CCN(CC2CO[C@H](c3ccccc3)O2)CC1 (stereo partly specified) | 28.8

Same assay, conditions: read-out: pKi (converted)

Row | Ki [nM] | SMILES
37 | 0.0891 | COc1cccc(OC)c1OCCN[C@H]1C[C@@H](c2ccccc2)c2ccccc2S1
38 | 151 | CC(CN1CCN(c2cc(Cl)ccc2Cl)CC1)N1C(=O)CC2(CCCC2)CC1=O (stereo unspecified)
39 | 407 | N#Cc1ccc(Cl)cc1N1CCN(CCN2C(=O)CC3(CCCC3)CC2=O)CC1
40 | 43.7 | O=C1CC2(C=CN1CCN1CCN(c3ccccc3Cl)CC1)CCCC2
41 | 2570 | COc1cc2nc3c(c(N)c2cc1OC)CCC(CNC(=O)c1ccoc1)C3 (stereo unspecified)
